Laboratory results published in patent publication US11053204B2, “Pyrimidinyloxy benzene derivatives as herbicides” (FMC Corporation, priority 2015, dated 2021).

How the values were obtained:
Type in all cases: in vivo
[1] = system: barnyardgrass (Echinochloa crus-galli); test: Test B flooded paddy test, plant response rating; conditions: 250 g ai/ha; Flood; scale of 0 to 100 where 0 is no effect and 100 is complete control; 13 to 15 days
Outline: (§1)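 Greenhouse pots flooded to 3 cm above soil at time of treatment received compound via the water, which stayed at that level.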

[2] = system: sedge, umbrella (small-flower umbrella sedge, Cyperus difformis); test: Test B flooded paddy test, plant response rating; conditions: 250 g ai/ha; Flood; scale of 0 to 100 where 0 is no effect and 100 is complete control; 13 to 15 days
Outline: as §1

[3] = system: rice (Oryza sativa); test: Test B flooded paddy test, plant response rating; conditions: 250 g ai/ha; Flood; scale of 0 to 100 where 0 is no effect and 100 is complete control; 13 to 15 days
Outline: as §1

[4] = system: ducksalad (Heteranthera limosa); test: Test B flooded paddy test, plant response rating; conditions: 250 g ai/ha; Flood; scale of 0 to 100 where 0 is no effect and 100 is complete control; 13 to 15 days
Outline: as §1

[5] = system: barnyardgrass (Echinochloa crus-galli); test: Test A postemergence, visual injury rating; conditions: 0 is no effect, 100 is complete control
Outline: (§2)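 Greenhouse pot test, loam/sand soil. Formulation: non-phytotoxic solvent mix plus surfactant. Pre: directed spray onto soil after sowing. Post: plants at 1–2 leaf, 2–10 cm. Rated visually vs untreated controls at ~10 d, 0 (no effect) to 100 (complete control).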

[6] = system: galium (catchweed bedstraw, Galium aparine); test: Test A postemergence, visual injury rating; conditions: 0 is no effect, 100 is complete control
Outline: as §2

[7] = system: pigweed (Amaranthus retroflexus); test: Test A postemergence, visual injury rating; conditions: 0 is no effect, 100 is complete control
Outline: as §2

[8] = system: blackgrass (Alopecurus myosuroides); test: Test A postemergence, visual injury rating; conditions: 0 is no effect, 100 is complete control
Outline: as §2

[9] = system: ragweed (common ragweed, Ambrosia elatior); test: Test A postemergence, visual injury rating; conditions: 0 is no effect, 100 is complete control
Outline: as §2

[10] = system: corn (Zea mays); test: Test A postemergence, visual injury rating; conditions: 0 is no effect, 100 is complete control
Outline: as §2

[11] = system: giant foxtail (Setaria faberii); test: Test A postemergence, visual injury rating; conditions: 0 is no effect, 100 is complete control
Outline: as §2

[12] = system: kochia (Kochia scoparia); test: Test A postemergence, visual injury rating; conditions: 0 is no effect, 100 is complete control
Outline: as §2

[13] = system: Italian ryegrass (Lolium multiflorum); test: Test A postemergence, visual injury rating; conditions: 0 is no effect, 100 is complete control
Outline: as §2

[14] = system: wheat (Triticum aestivum); test: Test A postemergence, visual injury rating; conditions: 0 is no effect, 100 is complete control
Outline: as §2

[15] = system: barnyardgrass (Echinochloa crus-galli); test: Test A preemergence, visual injury rating; conditions: 0 to 100 scale (0 no effect, 100 complete control)
Outline: as §2

[16] = system: pigweed (Amaranthus retroflexus); test: Test A preemergence, visual injury rating; conditions: 0 to 100 scale (0 no effect, 100 complete control)
Outline: as §2

[17] = system: ragweed (common ragweed, Ambrosia elatior); test: Test A preemergence, visual injury rating; conditions: 0 to 100 scale (0 no effect, 100 complete control)
Outline: as §2

[18] = system: giant foxtail (Setaria faberii); test: Test A preemergence, visual injury rating; conditions: 0 to 100 scale (0 no effect, 100 complete control)
Outline: as §2

[19] = system: kochia (Kochia scoparia); test: Test A preemergence, visual injury rating; conditions: 0 to 100 scale (0 no effect, 100 complete control)
Outline: as §2

[20] = system: Italian ryegrass (Lolium multiflorum); test: Test A preemergence, visual injury rating; conditions: 0 to 100 scale (0 no effect, 100 complete control)
Outline: as §2

[21] = 125 g ai/ha, 0 to 100 scale, approximately 10 days

SMILES: CCSC(=O)c1c(Br)cccc1Oc1ncc(Cl)cn1 [Compound 83]
- Plant response rating, Barnyardgrass [1]: 0
- Plant response rating, Sedge, Umbrella [2]: 80
- Plant response rating, Rice [3]: 0
- Plant response rating, Ducksalad [4]: 80
- Barnyardgrass plant response rating [5, 21]: 0
- Barnyardgrass plant response rating (0 to 100 scale) ([5]; 500 g ai/ha): 90
- Galium plant response rating [6, 21]: 30
- Galium plant response rating (0 to 100 scale) ([6]; 500 g ai/ha): 20
- Pigweed plant response rating [7, 21]: 30
- Pigweed plant response rating (0 to 100 scale) ([7]; 500 g ai/ha): 70
- Blackgrass plant response rating [8, 21]: 0
- Blackgrass plant response rating (0 to 100 scale) ([8]; 500 g ai/ha): 40
- Ragweed plant response rating [9, 21]: 0
- Ragweed plant response rating (0 to 100 scale) ([9]; 500 g ai/ha): 0
- Corn plant response rating [10, 21]: 20
- Corn plant response rating (0 to 100 scale) ([10]; 500 g ai/ha): 30
- Foxtail, Giant plant response rating [11, 21]: 0
- Foxtail, Giant plant response rating (0 to 100 scale) ([11]; 500 g ai/ha): 80
- Kochia plant response rating [12, 21]: 30
- Kochia plant response rating (0 to 100 scale) ([12]; 500 g ai/ha): 90
- Ryegrass, Italian plant response rating [13, 21]: 0
- Ryegrass, Italian plant response rating (0 to 100 scale) ([13]; 500 g ai/ha): 0
- Wheat plant response rating [14, 21]: 0
- Wheat plant response rating (0 to 100 scale) ([14]; 500 g ai/ha): 0
- Barnyardgrass plant response rating ([15]; 125 g ai/ha): 30
- Barnyardgrass plant response rating ([15]; 500 g ai/ha): 90
- Pigweed plant response rating ([16]; 125 g ai/ha): 30
- Pigweed plant response rating ([16]; 500 g ai/ha): 90
- Ragweed plant response rating ([17]; 125 g ai/ha): 0
- Ragweed plant response rating ([17]; 500 g ai/ha): 0
- Foxtail, Giant plant response rating ([18]; 125 g ai/ha): 90
- Foxtail, Giant plant response rating ([18]; 500 g ai/ha): 100
- Kochia plant response rating ([19]; 125 g ai/ha): 0
- Kochia plant response rating ([19]; 500 g ai/ha): 0
- Ryegrass, Italian plant response rating ([20]; 125 g ai/ha): 0
- Ryegrass, Italian plant response rating ([20]; 500 g ai/ha): 0

SMILES: O=C(OCC(F)(F)F)c1c(F)cccc1Oc1ncc(Br)cn1 [Compound 47]
- Plant response rating, Barnyardgrass [1]: 0
- Plant response rating, Sedge, Umbrella [2]: 0
- Plant response rating, Rice [3]: 0
- Plant response rating, Ducksalad [4]: 0
- Barnyardgrass plant response rating (0 to 100 scale) ([5]; 125 g ai/ha): 0
- Barnyardgrass plant response rating (0 to 100 scale) ([5]; 500 g ai/ha): 0
- Galium plant response rating (0 to 100 scale) ([6]; 125 g ai/ha): 0
- Galium plant response rating (0 to 100 scale) ([6]; 500 g ai/ha): 0
- Pigweed plant response rating (0 to 100 scale) ([7]; 125 g ai/ha): 0
- Pigweed plant response rating (0 to 100 scale) ([7]; 500 g ai/ha): 0
- Blackgrass plant response rating (0 to 100 scale) ([8]; 125 g ai/ha): 0
- Blackgrass plant response rating (0 to 100 scale) ([8]; 500 g ai/ha): 0
- Ragweed plant response rating (0 to 100 scale) ([9]; 125 g ai/ha): 0
- Ragweed plant response rating (0 to 100 scale) ([9]; 500 g ai/ha): 0
- Corn plant response rating (0 to 100 scale) ([10]; 125 g ai/ha): 0
- Corn plant response rating (0 to 100 scale) ([10]; 500 g ai/ha): 0
- Foxtail, Giant plant response rating (0 to 100 scale) ([11]; 125 g ai/ha): 0
- Foxtail, Giant plant response rating (0 to 100 scale) ([11]; 500 g ai/ha): 0
- Kochia plant response rating (0 to 100 scale) ([12]; 125 g ai/ha): 0
- Kochia plant response rating (0 to 100 scale) ([12]; 500 g ai/ha): 0
- Ryegrass, Italian plant response rating (0 to 100 scale) ([13]; 125 g ai/ha): 0
- Ryegrass, Italian plant response rating (0 to 100 scale) ([13]; 500 g ai/ha): 0
- Wheat plant response rating (0 to 100 scale) ([14]; 125 g ai/ha): 0
- Wheat plant response rating (0 to 100 scale) ([14]; 500 g ai/ha): 0
- Barnyardgrass plant response rating ([15]; 125 g ai/ha): 0
- Barnyardgrass plant response rating ([15]; 500 g ai/ha): 0
- Pigweed plant response rating ([16]; 125 g ai/ha): 0
- Pigweed plant response rating ([16]; 500 g ai/ha): 0
- Ragweed plant response rating ([17]; 125 g ai/ha): 0
- Ragweed plant response rating ([17]; 500 g ai/ha): 0
- Foxtail, Giant plant response rating ([18]; 125 g ai/ha): 0
- Foxtail, Giant plant response rating ([18]; 500 g ai/ha): 0
- Kochia plant response rating ([19]; 125 g ai/ha): 0
- Kochia plant response rating ([19]; 500 g ai/ha): 0
- Ryegrass, Italian plant response rating ([20]; 125 g ai/ha): 0
- Ryegrass, Italian plant response rating ([20]; 500 g ai/ha): 0

SMILES: CN(OCC(F)(F)F)C(=O)c1c(Br)cccc1Oc1ncc(Br)cn1 [Compound 24]
- Plant response rating, Barnyardgrass [1]: 0
- Plant response rating, Sedge, Umbrella [2]: 0
- Plant response rating, Rice [3]: 0
- Plant response rating, Ducksalad [4]: 0
- Barnyardgrass plant response rating (0 to 100 scale) ([5]; 125 g ai/ha): 0
- Barnyardgrass plant response rating (0 to 100 scale) ([5]; 500 g ai/ha): 10
- Galium plant response rating (0 to 100 scale) ([6]; 125 g ai/ha): 10
- Galium plant response rating (0 to 100 scale) ([6]; 500 g ai/ha): 20
- Pigweed plant response rating (0 to 100 scale) ([7]; 125 g ai/ha): 0
- Pigweed plant response rating (0 to 100 scale) ([7]; 500 g ai/ha): 10
- Blackgrass plant response rating (0 to 100 scale) ([8]; 125 g ai/ha): 0
- Blackgrass plant response rating (0 to 100 scale) ([8]; 500 g ai/ha): 0
- Ragweed plant response rating (0 to 100 scale) ([9]; 125 g ai/ha): 0
- Ragweed plant response rating (0 to 100 scale) ([9]; 500 g ai/ha): 0
- Corn plant response rating (0 to 100 scale) ([10]; 125 g ai/ha): 0
- Corn plant response rating (0 to 100 scale) ([10]; 500 g ai/ha): 0
- Foxtail, Giant plant response rating (0 to 100 scale) ([11]; 125 g ai/ha): 0
- Foxtail, Giant plant response rating (0 to 100 scale) ([11]; 500 g ai/ha): 0
- Kochia plant response rating (0 to 100 scale) ([12]; 125 g ai/ha): 0
- Kochia plant response rating (0 to 100 scale) ([12]; 500 g ai/ha): 0
- Ryegrass, Italian plant response rating (0 to 100 scale) ([13]; 125 g ai/ha): 0
- Ryegrass, Italian plant response rating (0 to 100 scale) ([13]; 500 g ai/ha): 0
- Wheat plant response rating (0 to 100 scale) ([14]; 125 g ai/ha): 0
- Wheat plant response rating (0 to 100 scale) ([14]; 500 g ai/ha): 0
- Barnyardgrass plant response rating ([15]; 125 g ai/ha): 0
- Barnyardgrass plant response rating ([15]; 500 g ai/ha): 30
- Pigweed plant response rating ([16]; 125 g ai/ha): 0
- Pigweed plant response rating ([16]; 500 g ai/ha): 90
- Ragweed plant response rating ([17]; 125 g ai/ha): 0
- Ragweed plant response rating ([17]; 500 g ai/ha): 0
- Foxtail, Giant plant response rating ([18]; 125 g ai/ha): 0
- Foxtail, Giant plant response rating ([18]; 500 g ai/ha): 20
- Kochia plant response rating ([19]; 125 g ai/ha): 0
- Kochia plant response rating ([19]; 500 g ai/ha): 0
- Ryegrass, Italian plant response rating ([20]; 125 g ai/ha): 0
- Ryegrass, Italian plant response rating ([20]; 500 g ai/ha): 0
